In ChEMBL document CHEMBL1154288, “The discovery and unique pharmacological profile of RO4938581 and RO4882224 as potent and selective GABAA alpha5 inverse agonists for the treatment of cognitive dysfunction” (Bioorg Med Chem Lett, 2009):

Legend:
[1] = target: T1, GABA-A receptor; alpha-5/beta-3/gamma-2 (Homo sapiens, UniProt P18507+P28472+P31644); experiment: Displacement of [3H]Flumazenil from cloned human GABA alpha-5-beta-3-gamma-2 receptor expressed in HEK293 cells; assay type: cell-based
T1 sequence (P18507 whole entry): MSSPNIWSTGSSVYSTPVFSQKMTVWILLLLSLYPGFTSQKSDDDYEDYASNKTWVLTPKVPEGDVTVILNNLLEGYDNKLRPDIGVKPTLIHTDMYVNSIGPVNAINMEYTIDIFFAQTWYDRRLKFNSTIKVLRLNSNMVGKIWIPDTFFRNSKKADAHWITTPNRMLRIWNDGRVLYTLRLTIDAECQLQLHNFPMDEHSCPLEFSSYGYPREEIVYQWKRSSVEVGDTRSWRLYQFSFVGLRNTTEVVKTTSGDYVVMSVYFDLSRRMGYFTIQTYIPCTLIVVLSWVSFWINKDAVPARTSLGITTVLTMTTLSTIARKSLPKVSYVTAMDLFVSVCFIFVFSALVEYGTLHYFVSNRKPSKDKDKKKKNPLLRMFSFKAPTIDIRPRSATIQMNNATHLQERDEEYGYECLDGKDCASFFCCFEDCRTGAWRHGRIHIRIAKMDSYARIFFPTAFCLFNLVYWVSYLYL
T1 sequence (P28472 whole entry): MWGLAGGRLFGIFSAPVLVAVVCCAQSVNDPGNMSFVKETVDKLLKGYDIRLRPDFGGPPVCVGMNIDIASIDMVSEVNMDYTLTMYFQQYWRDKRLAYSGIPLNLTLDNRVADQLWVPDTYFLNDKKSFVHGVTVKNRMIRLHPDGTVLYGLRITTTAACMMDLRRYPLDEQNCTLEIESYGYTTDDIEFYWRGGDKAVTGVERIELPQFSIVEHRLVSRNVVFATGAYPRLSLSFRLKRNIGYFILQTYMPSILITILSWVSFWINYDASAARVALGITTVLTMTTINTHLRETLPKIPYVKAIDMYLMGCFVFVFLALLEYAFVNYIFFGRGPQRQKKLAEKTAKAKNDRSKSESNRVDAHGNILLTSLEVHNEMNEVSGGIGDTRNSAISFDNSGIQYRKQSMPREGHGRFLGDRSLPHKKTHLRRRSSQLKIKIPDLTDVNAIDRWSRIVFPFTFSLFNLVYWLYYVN
T1 sequence (P31644 whole entry): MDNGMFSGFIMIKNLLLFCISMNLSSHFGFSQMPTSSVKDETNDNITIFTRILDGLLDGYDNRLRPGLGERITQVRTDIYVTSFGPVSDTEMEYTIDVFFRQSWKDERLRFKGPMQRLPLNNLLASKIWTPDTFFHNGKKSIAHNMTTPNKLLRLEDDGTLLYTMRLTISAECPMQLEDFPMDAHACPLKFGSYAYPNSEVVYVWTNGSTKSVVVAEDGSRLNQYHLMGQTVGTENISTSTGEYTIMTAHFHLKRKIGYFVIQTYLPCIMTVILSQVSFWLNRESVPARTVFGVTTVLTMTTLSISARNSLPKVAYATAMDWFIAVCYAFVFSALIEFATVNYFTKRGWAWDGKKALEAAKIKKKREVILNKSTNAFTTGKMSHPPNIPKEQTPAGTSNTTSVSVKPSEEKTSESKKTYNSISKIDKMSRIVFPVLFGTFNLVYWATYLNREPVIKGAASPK

[2] = target: T2, GABA-A receptor; alpha-3/beta-3/gamma-2 (Homo sapiens, UniProt P18507+P28472+P34903); experiment: Displacement of [3H]Flumazenil from cloned human GABA alpha-3-beta-3-gamma-2 receptor expressed in HEK293 cells; assay type: cell-based
T2 sequence (P18507 whole entry): T1 sequence (P18507 whole entry)
T2 sequence (P28472 whole entry): T1 sequence (P28472 whole entry)
T2 sequence (P34903 whole entry): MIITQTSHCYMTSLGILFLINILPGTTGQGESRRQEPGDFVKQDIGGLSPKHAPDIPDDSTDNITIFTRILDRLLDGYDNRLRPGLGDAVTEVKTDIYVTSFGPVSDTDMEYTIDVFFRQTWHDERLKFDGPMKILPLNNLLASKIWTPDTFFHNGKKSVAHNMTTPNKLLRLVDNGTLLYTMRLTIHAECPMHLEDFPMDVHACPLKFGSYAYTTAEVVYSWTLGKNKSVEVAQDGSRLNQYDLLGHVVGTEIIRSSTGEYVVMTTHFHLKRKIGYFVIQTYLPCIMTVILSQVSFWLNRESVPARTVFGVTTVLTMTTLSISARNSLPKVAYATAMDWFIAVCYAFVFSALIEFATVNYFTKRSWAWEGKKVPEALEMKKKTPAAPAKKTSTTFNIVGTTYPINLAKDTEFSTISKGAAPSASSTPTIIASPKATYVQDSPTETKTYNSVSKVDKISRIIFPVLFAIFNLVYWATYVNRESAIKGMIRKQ

[3] = target: GABA-A receptor; alpha-1/beta-2/gamma-2 (Rattus norvegicus) (UniProt P18508+P62813+P63138); experiment: Inverse agonist activity at rat GABA alpha-1-beta-3-gamma-2 receptor expressed in HEK293 cells by electrophysiology assay relative to GABA; assay type: functional, cell-based
[4] = target: GABA A receptor alpha-5/beta-3/gamma-2 (Rattus norvegicus) (UniProt P18508+P19969+P63079); experiment: Inverse agonist activity at rat GABA alpha-5-beta-3-gamma-2 receptor expressed in HEK293 cells by electrophysiology assay relative to GABA; assay type: functional, cell-based
[5] = Half life in rat; assay type: ADME, organism-based; conditions: in vivo
[6] = Lipophilicity, log D at pH 7.4; assay type: physicochemical; conditions: buffer
[7] = Volume of distribution at steady state in rat; assay type: ADME, organism-based; conditions: in vivo, read-out: Vdss
[8] = target: T3, GABA-A receptor; alpha-1/beta-3/gamma-2 (Homo sapiens, UniProt P14867+P18507+P28472); experiment: Displacement of [3H]Flumazenil from cloned human GABA alpha-1-beta-3-gamma-2 receptor expressed in HEK293 cells; assay type: cell-based
T3 sequence (P14867 whole entry): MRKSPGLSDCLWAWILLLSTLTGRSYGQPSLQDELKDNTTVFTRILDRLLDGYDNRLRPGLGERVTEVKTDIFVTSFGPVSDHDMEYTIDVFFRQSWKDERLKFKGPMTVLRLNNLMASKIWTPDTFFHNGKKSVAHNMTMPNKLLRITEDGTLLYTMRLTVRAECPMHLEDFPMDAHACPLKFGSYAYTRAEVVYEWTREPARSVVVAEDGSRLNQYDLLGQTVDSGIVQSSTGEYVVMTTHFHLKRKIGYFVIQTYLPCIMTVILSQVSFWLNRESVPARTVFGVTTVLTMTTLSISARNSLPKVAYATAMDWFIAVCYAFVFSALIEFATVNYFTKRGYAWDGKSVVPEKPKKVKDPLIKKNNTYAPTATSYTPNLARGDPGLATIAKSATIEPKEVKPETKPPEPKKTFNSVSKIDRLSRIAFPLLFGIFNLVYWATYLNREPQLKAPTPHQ
T3 sequence (P18507 whole entry): T1 sequence (P18507 whole entry)
T3 sequence (P28472 whole entry): T1 sequence (P28472 whole entry)

[9] = Clearance in rat; assay type: ADME, organism-based; conditions: in vivo
[10] = test system: HEK293; experiment: Selectivity ratio of Ki for cloned human GABA alpha-2-beta-3-gamma-2 receptor expressed in HEK293 cells to Ki for cloned human GABA alpha-5-beta-3-gamma-2 receptor expressed in HEK293 cells; assay type: cell-based
[11] = test system: HEK293; experiment: Selectivity ratio of Ki for cloned human GABA alpha-1-beta-3-gamma-2 receptor expressed in HEK293 cells to Ki for cloned human GABA alpha-5-beta-3-gamma-2 receptor expressed in HEK293 cells; assay type: cell-based

| SMILES | Ki [1] | Ki [2] | Efficacy [3] | Efficacy [4] | half-life [5] | logD [6] | Vd [7] | Ki [8] | clearance [9] | Ratio Ki [10] | Ratio Ki [11] |
| --- | --- | --- | --- | --- | --- | --- | --- | --- | --- | --- | --- |
| FC(F)c1ncn2c1Cn1ncnc1-c1cc(Br)ccc1-2 | 4.6 nM | 80 nM | -3% | -35% | 4.9 h | 1.9 | 1.2 L/kg | 174 nM | 2.9 mL/min/kg |  |  |
| Clc1ncn2c1Cn1ncnc1-c1cc(Br)ccc1-2 | 1.4 nM | 8.8 nM | -13% | -48% | 1.6 h | 2.2 | 1.3 L/kg | 33 nM | 9.7 mL/min/kg | 18 | 24 |
| Clc1ccc2c(c1)-c1ncnn1Cc1c(Cl)ncn1-2 | 2 nM | 14 nM | -3% | -40 | 0.6 h | 1.8 | 0.5 L/kg | 15 nM | 12.4 mL/min/kg | 12 | 7 |
| Cc1ncn2c1Cn1ncnc1-c1cc(Cl)ccc1-2 | 3 nM | 265 nM | -11% | -41% | 3.4 h | 2 | 1.9 L/kg | 18 nM | 7.2 mL/min/kg | 72 | 6 |
